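1) Cells in 96-well plates. 2) Compound, 48 h, 5 concentrations. 3) Linear interpolation between surrounding doses. 4) Unreached endpoint = highest concentration. Abbreviation: GI50, concentration required for 50% inhibition of growth. TGI: concentration producing complete growth inhibition.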
Legend:
Assay in all cases: NCI tumour cell line growth inhibition, 48 h
HCT-15 colon = test system: HCT-15 colon
HOP-62 NSCLC = test system: HOP-62 NSCLC
KM12 colon = test system: KM12 colon
NCI-H226 lung = test system: NCI-H226 lung
NCI-H23 lung = test system: NCI-H23 lung
NCI-H460 lung = test system: NCI-H460 lung
RXF 393 renal = test system: RXF 393 renal
SF-268 CNS = test system: SF-268 CNS
SK-MEL-2 melanoma = test system: SK-MEL-2 melanoma
UACC-257 melanoma = test system: UACC-257 melanoma

Compound	TGI (HCT-15 colon) [µM]	TGI (HOP-62 NSCLC) [µM]	TGI (KM12 colon) [µM]	TGI (NCI-H226 lung) [µM]	TGI (NCI-H23 lung) [µM]	TGI (NCI-H460 lung) [µM]	TGI (RXF 393 renal) [µM]	TGI (SF-268 CNS) [µM]	TGI (SK-MEL-2 melanoma) [µM]	TGI (UACC-257 melanoma) [µM]	GI50 (HCT-15 colon) [nM]	GI50 (HOP-62 NSCLC) [nM]	GI50 (KM12 colon) [nM]	GI50 (NCI-H226 lung) [µM]	GI50 (NCI-H23 lung) [nM]	GI50 (NCI-H460 lung) [nM]	GI50 (SF-268 CNS) [nM]	GI50 (SK-MEL-2 melanoma) [nM]	GI50 (UACC-257 melanoma) [µM]	GI50 (RXF 393 renal) [nM]
Cc1c2c(C(N)=O)nccc2c(C)c2c1c1ccccc1n2Cc1ccccc1	44.2	19.3	72.6	69.6	78.8	28.8	31.9	97.5	43.3	> 100										
Cc1ccc2occ/c(=N\Nc3ccccc3)c2c1	> 100	> 100	78.5	> 100	> 100	> 100	58.9	> 100	> 100	> 100										
CC(C)(C)c1cc(C(=O)/C=C/c2ccc(C(=O)O)cc2)cc(C(C)(C)C)c1	4.12	6.49	5.75	4.22		7.36	4.34	6.82	12.7	21.9										
CCOC(=O)C(C)(c1c(C)[nH]c2ccccc12)c1c(C)[nH]c2ccccc12	32.5	43.6	33.2	32.9	37.5	38.7	25.8		38.4	28										
CC1CCC(C(C)(C)c2ccccc2)C(=O)C1 (stereo unspecified)	> 100	> 100	> 100			> 100		> 100	> 100	> 100										
COc1ccc2nc3cc(Cl)ccc3c(Sc3ccc(NC(C)=O)cc3)c2c1		> 60.2	> 35.2	> 30.9	> 33.5	> 47	> 27.9	> 40	> 26.4	> 41										
COC(=O)c1c[nH]cc1CCCCc1c[nH]cc1C(=O)OC		> 100	> 100	> 100	> 100	> 100	> 100	> 100	> 100	> 100										
C=C1C(=O)OC2C1CC(OC(C)=O)/C(C)=C/CCC1(C)OC21 (stereo unspecified)	> 100		> 100	> 100	> 100	> 100		> 100	> 100	> 100										
COC(=O)[C@]12CC[C@@H](C)[C@H](C)[C@@H]1C1=CC[C@@H]3[C@@]4(C)C(C=O)=C[C@@](C)(COC(=O)c5ccco5)[C@@H]4[C@H](O)C[C@@]3(C)[C@]1(C)CC2	3.09	6.07	4.5	4.14	7.01	6.3		12.6	1.9	0.997	1510	2160	1830	1.94	2240	2510	2660	423	0.263	
O=C(NNc1cnccn1)c1nc2cc(F)ccc2n2cccc12	> 100	> 100	> 100	> 100	> 100	> 100		> 100	> 100	> 100	183	364	509	1.57	765	403	551	1610	0.515	
COc1ccc(-c2cc(-c3ccc(Nc4ccnc5cc(Cl)ccc45)cc3)nc(N3CCOCC3)n2)cc1				> 100	> 100		5.35	> 100	61.5					> 100	4990		6230	11700		2210
CC1COS(=O)O1 (stereo unspecified)	> 100	> 100	> 100	> 100	> 100	> 100		> 100	> 100	> 100										
CC(C)(C)OC(=O)N1C2CCCC23O[C@@H]1c1cc2c(cc1C3=O)OCO2 (stereo partly specified)		> 100	> 100	> 100	> 100	> 100	83.2	> 100	> 100	> 100										
COc1ccc(-c2ccc(NNC(=O)c3ccc(F)cc3)nn2)cc1OC	> 100	> 100	> 100	> 100	> 100	> 100	> 100	> 100		> 100	65500	91700	> 100000	71.8	> 100000	> 100000	79800		> 100	63000
O=C1C=CC(=CC=C2C=CN(CCCCCCCCCCC(=O)NCCCCCCCCCCCC(=O)O)C=C2)C=C1	> 100	> 100	> 100	> 100	> 100	> 100	> 100	> 100		> 100										
N#CC(C#N)=C1CCCOc2c1ccc1ccccc21	> 100	> 100	> 100		> 100	> 100	> 100	> 100			> 100000	79500	> 100000		> 100000	> 100000	> 100000			> 100000
O=C1c2ccccc2C(=O)N1C/C=N/NS(=O)(=O)c1ccc(Br)cc1	> 100	> 100	> 100	> 100	> 100	> 100		> 100	> 100	> 100										
C=CCn1c(SCC(=O)Nc2ccc(C(=O)/C=C/c3cc(OC)c(OC)c(OC)c3)cc2)nnc1-c1ccc(OC)cc1	1.26	1.75	1.5	1.55	2.66	2.59	1.41	11.2	15.4		277	691	315	0.445	670	698	399	2100		377
NC(CCc1ncc(C(=O)O)s1)C(=O)O (stereo unspecified)	> 100		> 100	> 100	> 100	> 100	> 100			> 100										

Compound	TGI (HCT-15 colon) [µM]	TGI (HOP-62 NSCLC) [µM]	TGI (KM12 colon) [µM]	TGI (NCI-H226 lung) [µM]	TGI (NCI-H23 lung) [µM]	TGI (NCI-H460 lung) [µM]	TGI (RXF 393 renal) [µM]	TGI (SF-268 CNS) [µM]	TGI (SK-MEL-2 melanoma) [µM]	TGI (UACC-257 melanoma) [µM]	GI50 (HCT-15 colon) [nM]	GI50 (HOP-62 NSCLC) [nM]	GI50 (KM12 colon) [nM]	GI50 (NCI-H226 lung) [µM]	GI50 (NCI-H23 lung) [nM]	GI50 (NCI-H460 lung) [nM]	GI50 (SF-268 CNS) [nM]	GI50 (SK-MEL-2 melanoma) [nM]	GI50 (UACC-257 melanoma) [µM]	GI50 (RXF 393 renal) [nM]
COc1cc(/C=N\O[Si](C)(C)C(C)(C)C)ccc1O[Si](C)(C)C(C)(C)C	82.3	> 100	> 100			> 100	> 100	> 100	> 100	> 100										
C=CCC1(C)CCCCC1(O)CS(=O)c1ccccc1 (stereo unspecified)	> 100	> 100	> 100	> 100		> 100	> 100	> 100		> 100										
O=C1C2[C@@H](C(=O)N1c1ccc(Br)cc1)C13C(=CC2([N+](=O)[O-])[C@@H]2C(=O)N(c4ccc(Br)cc4)C(=O)[C@@H]21)c1ccccc1N3c1ccccc1 (stereo partly specified)	> 100		> 100	> 100	> 100		> 100	24.2	> 100	> 100										
N#Cc1c(-c2ccco2)cc(-c2ccc(N)cc2)[nH]c1=O	> 100	> 100	> 100	> 100	> 100	> 100	> 100	> 100		> 100										
COc1cc(/C=C2\CCC/C(=C\c3ccc(OCC4CO4)c(OC)c3)C2=O)ccc1OCC1CO1 (stereo unspecified)	4.59	9.59	5.13		9.71	5.59	3.05	8.41	5.37	3.91	2040	3380	1880		2800	2370	2620	2430	1.82	1600
COc1cc(OC)c2sc(-c3ccc(-n4cncc4-c4cc(OC)c(OC)c(OC)c4)cc3)nc2c1	> 100	> 100	> 100		> 100	> 100	> 100		> 100	> 100	5480	75900	4620		6150	4670		6090	> 100	2800
NC(=S)N/N=C1\CCCC\C1=C/c1ccccc1	> 100	> 100	> 100		> 100	> 100	> 100	> 100	> 100	44.4										
Cc1ccc(C)c(N2C(=O)C(=O)C(c3nc4ccccc4o3)/C(=N\NC(=O)c3ccccc3O)C2=O)c1 (stereo unspecified)	> 100	> 100		88.6	28.7			> 100	> 100	> 100										
COc1cc2c(cc1OC)C1Cc3cc(OC)c(OC)cc3N1CC2 (stereo unspecified)		84.9	> 100	47.9	> 100	> 100		> 100	> 100	> 100										
Oc1ccc(/C=C/c2cc(O)cc3c2C(c2cc(O)cc(O)c2)C(c2ccc(O)c(O)c2)O3)cc1 (stereo unspecified)	45.4	> 100	87.4	> 100	63.9		> 100	> 100	74.8	> 100										
CN(C)CCNc1nc2ccccc2c2c(=O)c3cc(F)ccc3sc12	3.08	3.93	3.56	3.14	3.26	3.42	2.83		4.06	4.16	1570	1890	1930	1.61	1790	1790		2050	2.12	1450
Cc1ccc(N2C(=O)N(c3ccc(C)cc3)C3(SC=NN3C)C2=O)cc1 (stereo unspecified)		> 100	> 100	> 100	> 100	> 100	> 100	> 100		> 100										
O=C1/C(=C/N2N=C(c3ccc4ccccc4c3)CC2c2ccccc2O)SC(=S)N1c1cccnc1 (stereo unspecified)	> 100	> 100	> 100	> 100	> 100	> 100	8.19	> 100			428	2490	473	4.9	3030	514	4080			1600
COc1ccc2c(c1)C(C)Cc1c(ncnc1-n1cnc3ccccc31)N2C (stereo unspecified)	10.9	25	12.1	27.7	18.2	11.4		18.1	24.6	26.6	367	638	444	12.4	440	397	822	357	13.6	
CCc1cccc(C)c1NC(=O)CC1C(=O)Nc2ccccc2S1=O (stereo unspecified)	> 100	> 100	> 100	> 100	> 100	> 100		> 100	> 100	86.5										
NC(=O)CNc1ccc([As]=[As]c2ccc(NCC(N)=O)cc2)cc1 (stereo unspecified)	60.7	14.6	33.2	22.8	31.1	35.4	16.4	14		39.6	4210	3940	13700	5.62	8100	10600	2730		12.4	3040
CSc1ccc2c(cc1=O)[C@@H](NC(=O)c1cc(O)c(O)c(O)c1)CCc1cc(O)c(O)c(O)c1-2	41.4	> 100	46.8	35	39.7	44.3		> 100		34.3										
CC(=O)[CH-]C(=O)c1ccccc1.CC(=O)[CH-]C(=O)c1ccccc1.O=S(=O)([O-])c1cc([O-])c2c([O-])cc(S(=O)(=O)[O-])cc2c1.[Na+].[Ti+4]	> 100	> 100	> 100	> 100		> 100		> 100	> 100	> 100	> 100000	> 100000	30200	47.5		> 100000	> 100000	> 100000	77.1	

Reference: PubChem BioAssay (NCI)
